Non-standard residues stand in square brackets, D forms with d. Residues, ends and D or L forms follow the SMILES beside them. F2Pmp = N[C@@H](Cc1ccc(C(F)(F)P(=O)(O)O)cc1)C(=O)O
The compounds below were run against T1, Tyrosine-protein phosphatase non-receptor type 1 [1-298] (Homo sapiens, UniProt P18031) (assay: Phosphatase Inhibition Assay). Conditions: not given.
T1 construct: 1-298
T1 sequence (P18031 whole entry): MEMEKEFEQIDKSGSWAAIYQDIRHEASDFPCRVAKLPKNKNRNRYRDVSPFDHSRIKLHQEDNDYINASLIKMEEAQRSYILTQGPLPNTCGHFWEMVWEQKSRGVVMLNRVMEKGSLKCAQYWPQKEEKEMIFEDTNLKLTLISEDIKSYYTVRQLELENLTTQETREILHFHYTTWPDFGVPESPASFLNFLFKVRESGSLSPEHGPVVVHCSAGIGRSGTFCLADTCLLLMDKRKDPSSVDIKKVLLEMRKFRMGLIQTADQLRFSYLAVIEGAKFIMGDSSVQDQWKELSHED

Row | IC50 [nM] | Compound
1 | 80 | Cc1ccc(S(=O)(=O)N[C@@H](Cc2ccc(C3CC(=O)NS3(=O)=O)cc2)c2nc3ccccc3[nH]2)cc1 (stereo partly drawn) [N-[(1S)-1-(1H-1,3-benzodiazol-2-yl)-2-[4-(1,1,3-trioxo-1,2-thiazolidin-5-yl)phenyl]ethyl]-4-methylbenzene-1-sulfonamide]
2 | 210 | O=C1CC(c2ccc(C[C@H](NS(=O)(=O)c3cc(C(F)(F)F)ccc3C(F)(F)F)c3nc4ccccc4[nH]3)cc2)S(=O)(=O)N1 (stereo partly drawn) [N-[(1S)-1-(1H-1,3-benzodiazol-2-yl)-2-[4-(1,1,3-trioxo-1,2-thiazolidin-5-yl)phenyl]ethyl]-2,5-bis(trifluoromethyl)benzene-1-sulfonamide]
3 | 34 | O=C1CC(c2ccc(C[C@H](NS(=O)(=O)c3ccccc3)c3nc4ccccc4[nH]3)cc2F)S(=O)(=O)N1 (stereo partly drawn) [N-[(1S)-1-(1H-1,3-benzodiazol-2-yl)-2-[3-fluoro-4-(1,1,3-trioxo-1,2-thiazolidin-5-yl)phenyl]ethyl]benzenesulfonamide]
4 | 110 | O=C1CC(c2ccc(C[C@H](NS(=O)(=O)c3cccc(Oc4ccccc4)c3)c3nc4ccccc4[nH]3)cc2)S(=O)(=O)N1 (stereo partly drawn) [N-[(1S)-1-(1H-1,3-benzodiazol-2-yl)-2-[4-(1,1,3-trioxo-1,2-thiazolidin-5-yl)phenyl]ethyl]-3-phenoxybenzene-1-sulfonamide]
5 | 100 | CC(C)c1ccc(S(=O)(=O)N[C@@H](Cc2ccc(C3CC(=O)NS3(=O)=O)cc2)c2nc3ccccc3[nH]2)cc1 (stereo partly drawn) [N-[(1S)-1-(1H-1,3-benzodiazol-2-yl)-2-[4-(1,1,3-trioxo-1,2-thiazolidin-5-yl)phenyl]ethyl]-4-(propan-2-yl)benzene-1-sulfonamide]
6 | 170 | O=C1CC(c2ccc(C[C@H](NS(=O)(=O)c3ccccc3)c3nc4ccccc4[nH]3)cc2Br)S(=O)(=O)N1 (stereo partly drawn) [N-[(1S)-1-(1H-1,3-benzodiazol-2-yl)-2-[3-bromo-4-(1,1,3-trioxo-1,2-thiazolidin-5-yl)phenyl]ethyl]benzenesulfonamide]
7 | 51 | O=C1CC(c2ccc(C[C@H](NS(=O)(=O)c3cc(Cl)cc(Cl)c3)c3nc4ccccc4[nH]3)cc2)S(=O)(=O)N1 (stereo partly drawn) [N-[(1S)-1-(1H-1,3-benzodiazol-2-yl)-2-[4-(1,1,3-trioxo-1,2-thiazolidin-5-yl)phenyl]ethyl]-3,5-dichlorobenzene-1-sulfonamide]
8 | 220 | O=C1CC(c2ccc(C[C@H](NS(=O)(=O)c3cccc(Oc4ccc(C(F)(F)F)cc4)c3)c3nc4ccccc4[nH]3)cc2)S(=O)(=O)N1 (stereo partly drawn) [N-[(1S)-1-(1H-1,3-benzodiazol-2-yl)-2-[4-(1,1,3-trioxo-1,2-thiazolidin-5-yl)phenyl]ethyl]-3-[4-(trifluoromethyl)phenoxy]benzene-1-sulfonamide]
9 | 300 | CC(F)(F)C(=O)N[C@@H](Cc1ccc(C2CC(=O)NS2(=O)=O)cc1)c1nc2ccccc2[nH]1 (stereo partly drawn) [N-[(1S)-1-(1H-1,3-benzodiazol-2-yl)-2-[4-(1,1,3-trioxo-1,2-thiazolidin-5-yl)phenyl]ethyl]-2,2-difluoropropanamide]
10 | 66 | O=C1CC(c2ccc(C[C@H](NS(=O)(=O)c3cccc(F)c3)c3nc4ccccc4[nH]3)cc2)S(=O)(=O)N1 (stereo partly drawn) [N-[(1S)-1-(1H-1,3-benzodiazol-2-yl)-2-[4-(1,1,3-trioxo-1,2-thiazolidin-5-yl)phenyl]ethyl]-3-fluorobenzene-1-sulfonamide]
11 | 200 | O=C1CC(c2ccc(C[C@H](NC(=O)C(F)(F)c3ccccc3)c3nc4ccccc4[nH]3)cc2)S(=O)(=O)N1 (stereo partly drawn) [N-[(1S)-1-(1H-1,3-benzodiazol-2-yl)-2-[4-(1,1,3-trioxo-1,2-thiazolidin-5-yl)phenyl]ethyl]-2,2-difluoro-2-phenylacetamide]
12 | 600 | O=C(CCc1ccccc1)N[C@@H](Cc1ccc(C2CC(=O)NS2(=O)=O)cc1)c1nc2ccccc2[nH]1 (stereo partly drawn) [N-[(1S)-1-(1H-1,3-benzodiazol-2-yl)-2-[4-(1,1,3-trioxo-1,2-thiazolidin-5-yl)phenyl]ethyl]-3-phenylpropanamide]
13 | 31 | N#Cc1cc(C[C@H](NS(=O)(=O)c2ccccc2)c2nc3ccccc3[nH]2)ccc1C1CC(=O)NS1(=O)=O (stereo partly drawn) [N-[(1S)-1-(1H-1,3-benzodiazol-2-yl)-2-[3-cyano-4-(1,1,3-trioxo-1,2-thiazolidin-5-yl)phenyl]ethyl]benzenesulfonamide]
14 | 120 | C#Cc1cc(C[C@H](NS(=O)(=O)c2ccccc2)c2nc3ccccc3[nH]2)ccc1C1CC(=O)NS1(=O)=O (stereo partly drawn) [N-[(1S)-1-(1H-1,3-benzodiazol-2-yl)-2-[3-ethynyl-4-(1,1,3-trioxo-1,2-thiazolidin-5-yl)phenyl]ethyl]benzenesulfonamide]
15 | 40 | O=C1CC(c2ccc(C[C@H](NS(=O)(=O)c3ccc(Br)c(C(F)(F)F)c3)c3nc4ccccc4[nH]3)cc2)S(=O)(=O)N1 (stereo partly drawn) [N-[(1S)-1-(1H-1,3-benzodiazol-2-yl)-2-[4-(1,1,3-trioxo-1,2-thiazolidin-5-yl)phenyl]ethyl]-4-bromo-3-(trifluoromethyl)benzene-1-sulfonamide]
16 | 90 | Cc1cc(S(=O)(=O)N[C@@H](Cc2ccc(C3CC(=O)NS3(=O)=O)cc2)c2nc3ccccc3[nH]2)ccc1-c1ccccc1 (stereo partly drawn) [N-[(1S)-1-(1H-1,3-benzodiazol-2-yl)-2-[4-(1,1,3-trioxo-1,2-thiazolidin-5-yl)phenyl]ethyl]-3-methyl-4-phenylbenzene-1-sulfonamide]
17 | 170 | O=C1CC(c2ccc(C[C@H](NS(=O)(=O)c3ccc(C(F)(F)F)cc3Br)c3nc4ccccc4[nH]3)cc2)S(=O)(=O)N1 (stereo partly drawn) [N-[(1S)-1-(1H-1,3-benzodiazol-2-yl)-2-[4-(1,1,3-trioxo-1,2-thiazolidin-5-yl)phenyl]ethyl]-2-bromo-4-(trifluoromethyl)benzene-1-sulfonamide]
18 | 160 | O=C1CC(c2ccc(C[C@H](NS(=O)(=O)c3ccccc3Cl)c3nc4ccccc4[nH]3)cc2)S(=O)(=O)N1 (stereo partly drawn) [N-[(1S)-1-(1H-1,3-benzodiazol-2-yl)-2-[4-(1,1,3-trioxo-1,2-thiazolidin-5-yl)phenyl]ethyl]-2-chlorobenzene-1-sulfonamide]
19 | 120 | O=C1CC(c2ccc(C[C@H](NS(=O)(=O)c3ccc(Oc4ccncc4)cc3)c3nc4ccccc4[nH]3)cc2)S(=O)(=O)N1 (stereo partly drawn) [N-[(1S)-1-(1H-1,3-benzodiazol-2-yl)-2-[4-(1,1,3-trioxo-1,2-thiazolidin-5-yl)phenyl]ethyl]-4-(pyridin-4-yloxy)benzene-1-sulfonamide]
20 | 300 | Cc1ccccc1S(=O)(=O)N[C@@H](Cc1ccc(C2CC(=O)NS2(=O)=O)cc1)c1nc2ccccc2[nH]1 (stereo partly drawn) [N-[(1S)-1-(1H-1,3-benzodiazol-2-yl)-2-[4-(1,1,3-trioxo-1,2-thiazolidin-5-yl)phenyl]ethyl]-2-methylbenzene-1-sulfonamide]
21 | 1100 | Cc1ccc2nc(N[C@@H](Cc3ccc([C@@H]4CC(=O)NS4(=O)=O)cc3)c3nc4ccccc4[nH]3)sc2c1 [(5S)-5-{4-[(2S)-2-(1H-1,3-benzodiazol-2-yl)-2-[(6-methyl-1,3-benzothiazol-2-yl)amino]ethyl]phenyl}-1,2-thiazolidine-1,1,3-trione]

Same assay, conditions: pH 7; 22 °C

Row | IC50 [nM] | Compound
22 | 1800 | O=C1C[C@@H](c2ccc(C[C@H](Nc3nc4c(F)cc(Cl)cc4s3)c3nc4ccccc4[nH]3)cc2)S(=O)(=O)N1 [(5S)-5-{4-[(2S)-2-(1H-1,3-benzodiazol-2-yl)-2-[(6-chloro-4-fluoro-1,3-benzothiazol-2-yl)amino]ethyl]phenyl}-1,2-thiazolidine-1,1,3-trione]
23 | 1.7 | NC(=O)[C@H](Cc1ccc(C(F)(F)P(=O)(O)O)cc1)NC(=O)[C@H](Cc1ccccc1)NC(=O)Cc1ccc(C(F)(F)P(=O)(O)O)cc1 [({4-[(2S)-2-carbamoyl-2-[(2S)-2-(1-{4-[difluoro(phosphono)methyl]phenyl}acetamido)-3-phenylpropanamido]ethyl]phenyl}difluoromethyl)phosphonic acid]
24 | 1700 | CC(=O)N[C@@H](Cc1ccccc1)C(=O)N[C@@H](Cc1ccc(C(F)(F)P(=O)(O)O)cc1)C(N)=O [DFMP 5] (Ac-Phe-[F2Pmp]-NH2)
25 | 46 | O=C(Cc1ccc(C(F)(F)P(=O)(O)O)cc1)N[C@@H](Cc1ccccc1)C(=O)NCCc1ccc(C(F)(F)P(=O)(O)O)cc1 [[(4-{2-[(2S)-2-(1-{4-[difluoro(phosphono)methyl]phenyl}acetamido)-3-phenylpropanamido]ethyl}phenyl)difluoromethyl]phosphonic acid]
26 | 42 | NC(=O)[C@H](Cc1ccc(C(F)(F)P(=O)(O)O)cc1)NC(=O)CNC(=O)Cc1ccc(C(F)(F)P(=O)(O)O)cc1 [({4-[(2S)-2-carbamoyl-2-[2-(1-{4-[difluoro(phosphono)methyl]phenyl}acetamido)acetamido]ethyl]phenyl}difluoromethyl)phosphonic acid]
27 | 33000 | NC(=O)[C@H](Cc1ccccc1)NC(=O)[C@@H](NC(=O)Cc1ccc(C(F)(F)P(=O)(O)O)cc1)C(=O)O [(2R)-2-{[(1S)-1-carbamoyl-2-phenylethyl]carbamoyl}-2-(1-{4-[difluoro(phosphono)methyl]phenyl}acetamido)acetic acid]
28 | 110 | O=C1C[C@@H](c2ccc(C[C@H](NC(=O)C(F)(F)F)c3nc4ccc(C(F)(F)F)cc4[nH]3)cc2)S(=O)(=O)N1 [N-{(1S)-2-[4-(1,1-dioxido-3-oxoisothiazolidin-5-yl)phenyl]-1-[5-(trifluoromethyl)-1H-benzimidazol-2-yl]ethyl}-2,2,2-trifluoroacetamide]
29 | 0.4 | NC(=O)[C@H](Cc1ccc(C(F)(F)P(=O)(O)O)cc1)NC(=O)[C@@H](NC(=O)Cc1ccc(C(F)(F)P(=O)(O)O)cc1)C(=O)O [(2R)-2-{[(1S)-1-carbamoyl-2-{4-[difluoro(phosphono)methyl]phenyl}ethyl]carbamoyl}-2-(1-{4-[difluoro(phosphono)methyl]phenyl}acetamido)acetic acid]
